Source: patent US8293231B2, “Methods and compositions for treating ischemia” (Blue Blood Biotech Corp., priority 2005, dated 2012)

Tests used:
[1] = tested on: rat cornea; assay: Rat corneal angiogenesis assay; type: in vivo, Sprague Dawley rats
Protocol: (§1) The rat corneal assay was performed as described elsewhere. See eg., Kenyon B M., et al A model of angiogenesis in the mouse cornea. Invest Opthalmol Vis Sci. 1996; 37:1625-1632. Uniformly sized pellets of Hydron (polyhydroxyethylmethacrylate [poly HEMA]) (Sigma-Aldrich) containing either TMD23 or basic fibroblast growth factor (bFGF) and sucralfate (Sigma-Aldrich) were implanted into the rat corneal stroma adjacent to the temporal limbus. Briefly, sterile-saline suspensions containing 5-40 μg TMD23 or bFGF plus 10 mg sucralfate were made and speed vacuumed for 5 min; 12% Hydron in ethanol was added as described. The suspension was deposited onto an autoclaved, sterilized, 15-mm×15-mm nylon mesh. […] The eyes of Sprague Dawley rats (250-300 g) were topically anesthetized and a single pellet was inserted into a surgically created pocket in the corneal stroma. Corneas were examined daily with a dissecting microscope for up to 24 days for capillary growth. Maximal vessel length, clock h, and vascular areas of corneas of all rats were measured with a slit-lamp stereomicroscope.
as §1, with “elsewhere.” for “elsewhere. See eg., Kenyon B M., et al A model of angiogenesis in the mouse cornea. Invest Opthalmol Vis Sci. 1996; 37:1625-1632.”, “clock hour,” for “clock h,”

[2] = tested on: human melanoma A2058 cells in Matrigel; assay: Effect of TMD23 on tumor neoangiogenesis; type: in vivo, athymic nude mice
Protocol: To assess TMD23 effects on tumor neoangiogenesis, 1×10^6 human melanoma A2058 cells (ATCC® CRL-11147) were mixed with Matrigel (0.5 mL) containing heparin (60 U/mL) and various concentrations of TMD23 and subcutaneously injected into athymic nude mice. Matrigel plugs were harvested after 18 days and frozen in liquid nitrogen. Blood vessels were detected by immunohistochemistry using anti-CD31 antibody as described above. Microvessel density (MVD) was calculated by counting six highly vascularized fields in each section (200× magnification; MetaMorph software).

TMD23: Recombinant human thrombomodulin fragment, amino acids Ala242-Ser515 of SEQ ID NO: 2: six EGF-like structures (D2) plus Ser/Thr-rich domain D3
Day of maximal response ([1]; 90-ng dose): 10 days | Maximal response compared with bFGF ([1]; 90-ng dose, day 10): slightly greater than the response to 90 ng bFGF | Corneal neovascularization ([1]; implants in rat cornea): induced dose-dependent and time-dependent corneal neovascularization | Day of complete abrogation of angiogenic response ([1]; response regressed gradually after day 10): ≤ 24 days | Blood vessels in Matrigel plugs (CD31 staining) ([2]; 18 days): significantly more blood vessels | Weight of tumor contained in a Matrigel plug ([2]; FIG. 8A): increased the weight of tumor | Microvessel density (MVD) ([2]; FIG. 8C): increased microvessel density | Tumor size developed by Matrigel plugs containing A2058 cells ([2]; compared with A2058 cells alone, 18 days): bigger
